Laboratory results: article PMC8242589, “Cardiac Safety of Kinase Inhibitors – Improving Understanding and Prediction of Liabilities in Drug Discovery Using Human Stem Cell-Derived Models” (Frontiers in Cardiovascular Medicine, 2021)
“Also recorded” adds a separate entry of the source.

Columns and labels:
[1] = tested on: hSC-CMs (Cor.4U Cardiomyocytes); assay: CardioExcyte 96 impedance and EFP recording (beating rate, base impedance); format: cell-based, human; details: for activity at 0.03 µM / activity at 0.1 µM / activity at 0.3 µM / activity at 1 µM: Homo sapiens, Cardiomyocyte; for activity at 0.03 µM / activity at 0.1 µM / activity at 0.3 µM / activity at 1 µM / BR / Base Imp: vs baseline before drug (taken as 100%)
In short: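 hSC-CM monolayers (Cor.4U), cultured 4 days at 37 °C, 5% CO2, recorded spontaneously beating; impedance sampled at 1 kHz, EFP at 10 kHz. Beating rate taken as reciprocal of inter-spike interval in EFP. Each test concentration expressed as fractional change versus pre-drug baseline (100%).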

[2] = tested on: hSC-CMs (Cor.4U Cardiomyocytes); assay: Apoptosis assay (CellEvent Caspase-3/7 Green, IncuCyte ZOOM kinetics over 24 h); format: cell-based, human; design: key to Caspase / Caspase MEAN: % of time-matched vehicle control (green object area); details: for activity at 0.03 µM / activity at 0.1 µM / activity at 0.3 µM / activity at 1 µM: Homo sapiens, Cardiomyocyte; for activity at 0.03 µM / activity at 0.1 µM / activity at 0.3 µM / activity at 1 µM / Caspase: normalized to time-matched vehicle control; for Apoptosis (caspase-3/7 activation), result in words: monitored over 24 h
In short: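 Cor.4U cardiomyocytes were cultured 4 days at 5% CO2 and 37 °C, given a 2 h baseline, then treated with compound for 24 h. Caspase-3/7 green nuclear signal was imaged every 2 h, and total green object area per well (μm^2/well) was normalized to the time-matched vehicle control. At least three replicates were run per concentration.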

[3] = tested on: hSC-CMs (Cor.4U Cardiomyocytes); assay: ATP assay (CellTiter-Glo Luminescent Cell Viability Assay); format: cell-based, human; details: for viability at 0.03 µM / viability at 0.1 µM / viability at 0.3 µM / viability at 1 µM: Homo sapiens, Cardiomyocyte; for viability at 0.03 µM / viability at 0.1 µM / viability at 0.3 µM / viability at 1 µM / ATP: normalized to time-matched DMSO control; for Effect on ATP level, in words: hSC-CMs, up to the highest test concentrations
In short: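 Human stem-cell-derived Cor.4U cardiomyocytes (25,000–30,000/well), cultured 4 days at 37 °C, switched to serum-free BMCC medium 12 h before dosing. Cellular ATP quantified by CellTiter-Glo luminescence and normalized to time-matched DMSO controls; at least three replicates per concentration.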

[4] = tested on: GSK-3α; details: ref [46] (CHIR99021), [47] (SB 216763); read-out: Target IC50 GSK-3α; cited from earlier work
[5] = tested on: ROCK1; details: ref [36] (RKI-1447), [37], [38] (Fasudil), [39]–[43] (Y-27632), [44], [45] (GSK-429286); read-out: Target IC50 ROCK1; cited from earlier work
[6] = tested on: ROCK2; details: ref [36] (RKI-1447), [37], [38] (Fasudil), [39]–[43] (Y-27632), [44], [45] (GSK-429286); read-out: Target IC50 ROCK2; cited from earlier work
[7] = 0.1 µM, 24h, read-out: Base Imp

Cc1c[nH]c(-c2cnc(NCCNc3ccc(C#N)cn3)nc2-c2ccc(Cl)cc2Cl)n1 [CHIR99021]
activity at 0.03 µM ([1]; 2h, read-out: BR): 99% | activity at 0.03 µM ([1]; 2h, read-out: Base Imp): 96% | activity at 0.03 µM ([1]; 24h, read-out: BR): 95% | activity at 0.03 µM ([1]; 24h, read-out: Base Imp): 97% | activity at 0.1 µM ([1]; 0.1 µM, 2h, read-out: BR): 93% | activity at 0.1 µM ([1]; 0.1 µM, 2h, read-out: Base Imp): 93% | activity at 0.1 µM ([1]; 0.1 µM, 24h, read-out: BR): 92% | activity at 0.1 µM [1, 7]: 97% | activity at 0.3 µM ([1]; 2h, read-out: BR): 90% | activity at 0.3 µM ([1]; 2h, read-out: Base Imp): 94% | activity at 0.3 µM ([1]; 24h, read-out: BR): 92% | activity at 0.3 µM ([1]; 24h, read-out: Base Imp): 91% | activity at 1 µM ([1]; 1 µM, 2h, read-out: BR): 84% | activity at 1 µM ([1]; 1 µM, 2h, read-out: Base Imp): 90% | activity at 1 µM ([1]; 1 µM, 24h, read-out: BR): 93% | activity at 1 µM ([1]; 1 µM, 24h, read-out: Base Imp): 88% | Effect on cardiomyocyte function in 3D surface plots (beating rate, base impedance, ATP), in words ([1]; hSC-CMs, 2 and 24 h): minimal functional effect | Effect on hSC-CMs function (base impedance and beating rate), in words ([1]; hSC-CMs, 2 and 24 h): did not produce functionally relevant changes | activity at 0.03 µM ([2]; 2h): 160% | activity at 0.03 µM ([2]; 24h): 109% | activity at 0.1 µM ([2]; 0.1 µM, 2h): 143% | activity at 0.1 µM ([2]; 0.1 µM, 24h): 79% | activity at 0.3 µM ([2]; 2h): 132% | activity at 0.3 µM ([2]; 24h): 80% | activity at 1 µM ([2]; 1 µM, 2h): 122% | activity at 1 µM ([2]; 1 µM, 24h): 85% | Apoptosis (caspase-3/7 activation), result in words ([2]; hSC-CMs): did not have any functionally-relevant effect | viability at 0.03 µM ([3]; 2h): 87% | viability at 0.03 µM ([3]; 24h): 97% | viability at 0.1 µM ([3]; 0.1 µM, 2h): 87% | viability at 0.1 µM ([3]; 0.1 µM, 24h): 95% | viability at 0.3 µM ([3]; 2h): 93% | viability at 0.3 µM ([3]; 24h): 92% | viability at 1 µM ([3]; 1 µM, 2h): 99% | viability at 1 µM ([3]; 1 µM, 24h): 97% | Effect on ATP level, in words [3]: did not impact the ATP level | IC50 [4]: 10 nM

CC1=C(C(=O)Nc2cc3cn[nH]c3cc2F)C(c2ccc(C(F)(F)F)cc2)CC(=O)N1 (stereo not drawn) [GSK-429286]
BR ([1]; 0.01 µM, 2h): 102 | Base Imp ([1]; 0.01 µM, 2h): 99 | BR ([1]; 0.01 µM, 24h): 100 | Base Imp ([1]; 0.01 µM, 24h): 92 | BR ([1]; 0.1 µM, 2h): 102 | Base Imp ([1]; 0.1 µM, 2h): 91 | BR ([1]; 0.1 µM, 24h): 106 | Base Imp ([1]; 0.1 µM, 24h): 85 | BR ([1]; 1 µM, 2h): 105 | Base Imp ([1]; 1 µM, 2h): 83 | BR ([1]; 1 µM, 24h): 109 | Base Imp ([1]; 1 µM, 24h): 72 | BR ([1]; 10 µM, 2h): 98 | Base Imp ([1]; 10 µM, 2h): 69 | BR ([1]; 10 µM, 24h): 88 | Base Imp ([1]; 10 µM, 24h): 58 | Effect on base impedance, in words ([1]; hSC-CMs, 2 and 24 h): concentration-and time-dependent decrease in base impedance; also recorded: concentration-dependent effects | Caspase ([2]; 0.01 µM, 2h): 95 | Caspase ([2]; 0.01 µM, 24h): 97 | Caspase ([2]; 0.1 µM, 2h): 109 | Caspase ([2]; 0.1 µM, 24h): 103 | Caspase ([2]; 1 µM, 2h): 104 | Caspase ([2]; 1 µM, 24h): 105 | Caspase ([2]; 10 µM, 2h): 116 | Caspase ([2]; 10 µM, 24h): 127 | Apoptosis (caspase-3/7 activity) at the highest test concentration, in words ([2]; top / highest test concentration, over 24 h): marginal effects | ATP ([3]; 0.01 µM, 2h): 101 | ATP ([3]; 0.01 µM, 24h): 101 | ATP ([3]; 0.1 µM, 2h): 101 | ATP ([3]; 0.1 µM, 24h): 96 | ATP ([3]; 1 µM, 2h): 102 | ATP ([3]; 1 µM, 24h): 96 | ATP ([3]; 10 µM, 2h): 104 | ATP ([3]; 10 µM, 24h): 102 | IC50 [5]: 14 nM | IC50 [6]: 63 nM

Cn1cc(C2=C(c3ccc(Cl)cc3Cl)C(=O)NC2=O)c2ccccc21 [SB 216763]
activity at 0.03 µM ([1]; 2h, read-out: BR): 98% | activity at 0.03 µM ([1]; 2h, read-out: Base Imp): 109% | activity at 0.03 µM ([1]; 24h, read-out: BR): 91% | activity at 0.03 µM ([1]; 24h, read-out: Base Imp): 108% | activity at 0.1 µM ([1]; 0.1 µM, 2h, read-out: BR): 88% | activity at 0.1 µM ([1]; 0.1 µM, 2h, read-out: Base Imp): 107% | activity at 0.1 µM ([1]; 0.1 µM, 24h, read-out: BR): 94% | activity at 0.1 µM [1, 7]: 107% | activity at 0.3 µM ([1]; 2h, read-out: BR): 97% | activity at 0.3 µM ([1]; 2h, read-out: Base Imp): 106% | activity at 0.3 µM ([1]; 24h, read-out: BR): 94% | activity at 0.3 µM ([1]; 24h, read-out: Base Imp): 102% | activity at 1 µM ([1]; 1 µM, 2h, read-out: BR): 85% | activity at 1 µM ([1]; 1 µM, 2h, read-out: Base Imp): 102% | activity at 1 µM ([1]; 1 µM, 24h, read-out: BR): 93% | activity at 1 µM ([1]; 1 µM, 24h, read-out: Base Imp): 105% | Effect on cardiomyocyte function in 3D surface plots (beating rate, base impedance, ATP), in words ([1]; hSC-CMs, 2 and 24 h): minimal functional effect | Effect on hSC-CMs function (base impedance and beating rate), in words ([1]; hSC-CMs, 2 and 24 h): did not produce functionally relevant changes | activity at 0.03 µM ([2]; 2h): 143% | activity at 0.03 µM ([2]; 24h): 92% | activity at 0.1 µM ([2]; 0.1 µM, 2h): 174% | activity at 0.1 µM ([2]; 0.1 µM, 24h): 132% | activity at 0.3 µM ([2]; 2h): 256% | activity at 0.3 µM ([2]; 24h): 265% | activity at 1 µM ([2]; 1 µM, 2h): 326% | activity at 1 µM ([2]; 1 µM, 24h): 352% | Time to plateau of caspase-3/7 activation ([2]; hSC-CMs): within the first hour | Apoptosis (caspase-3/7 activation), result in words ([2]; hSC-CMs): quickly induced a concentration-dependent caspase−3/7 activation | viability at 0.03 µM ([3]; 2h): 88% | viability at 0.03 µM ([3]; 24h): 98% | viability at 0.1 µM ([3]; 0.1 µM, 2h): 88% | viability at 0.1 µM ([3]; 0.1 µM, 24h): 99% | viability at 0.3 µM ([3]; 2h): 91% | viability at 0.3 µM ([3]; 24h): 95% | viability at 1 µM ([3]; 1 µM, 2h): 97% | viability at 1 µM ([3]; 1 µM, 24h): 96% | Effect on ATP level, in words [3]: did not impact the ATP level | IC50 [4]: 34 nM
